Data set [1] concerns CYP3A. Briefly: Clinical DDI study: pharmacokinetics of midazolam (CYP3A probe substrate) and 1′-hydroxymidazolam with and without ceritinib. Conditions: for Metabolite-to-parent ratio: AUC0–144 h based, molecular weight corrected; for AUC(0-inf): read-out: AUC0-inf, adjusted geometric mean. The format is in vivo, human. An excerpt:
This was a multicenter, open-label, single sequence, crossover phase I study (ClinicalTrials.gov identifier: NCT02422589) and was divided into two phases, DDI phase and post-DDI treatment phase (Fig. 1). Patients were recruited from 10 clinical centers located across 4 countries, namely Spain (n = 3), United States (n = 3), Italy (n = 3), and Denmark (n = 1).
To assess the pharmacokinetics of probe substrates, blood samples were obtained on Days 1 and 28 at pre-dose and at 0.25, 0.5, 1, 2, 3, 4, 6, 8, 10, 24, 48, 72, 96, 120, and 144 h post-dose. […] A blood sample for CYP2C9 genotyping was collected on Day 1 of the DDI phase from all participating patients. Patients were categorized as CYP2C9 poor, intermediate, or extensive metabolizers based on the genotype testing results. This assessment was of exploratory nature and was not used as inclusion/exclusion criteria in the study.
A linear mixed-effects model was fitted to the log-transformed primary PK parameters (Cmax, AUC0-144 h, and AUC0-inf) and included a fixed effect for treatment and a random effect for subject.

A further data set deals with CYP2C9. Conditions: for AUC0-inf, adjusted geometric mean / Cmax, adjusted geometric mean: linear mixed effects model; for Tmax: median [min, max]; for AUC0–144 h / Cmax: patient plasma; for AUC0–144 h / Cmax / Metabolite-to-parent ratio: geometric mean (CV%); for Metabolite-to-parent ratio: AUC0–144 h based, molecular weight corrected.
Data set [2] concerns CYP3A. The following applies: PBPK, cited from earlier work.
Setting [3] is: midazolam 2.5 mg single oral dose + ceritinib 750 mg QD at steady state (Day 28), patient plasma, geometric mean (CV%).
The mark [4] stands for this setting: midazolam 2.5 mg single oral dose alone (Day 1), patient plasma, geometric mean (CV%).
Where [5] appears, read: midazolam + ceritinib vs midazolam alone.
The mark [6] stands for this setting: treatment warfarin + ceritinib 750 mg QD for 3 weeks.
Where [7] appears, read: warfarin 10 mg single oral dose + ceritinib 750 mg QD at steady state (Day 28).
Where [8] appears, read: warfarin 10 mg single oral dose alone (Day 1).
Where [9] appears, read: warfarin + ceritinib / warfarin alone.
The mark [10] stands for this setting: warfarin + ceritinib vs warfarin alone.
Where [11] appears, read: midazolam 2.5 mg single oral dose + ceritinib 750 mg QD (Day 28), geometric mean (CV%).
Setting [12] is: midazolam 2.5 mg single oral dose alone (Day 1), geometric mean (CV%).

SMILES strings stand for the structures. Several values for one entry are separate records, joined by “and”; a condition that tells them apart may be missing. Equal entries are not always repeated. Entries after “also recorded” stand apart in the source; their conditions may differ. Where two headings read alike, the source gives them in different places.

`OCc1ncc2n1-c1ccc(Cl)cc1C(c1ccccc1F)=NC2` [1′-hydroxymidazolam]: the Tmax in the data set with CYP3A [1] (midazolam 2.5 mg single oral dose + ceritinib 750 mg QD (Day 28), median [min, max]) is 0.583 [0.250; 2.53] h; in the data set on CYP3A [1] (midazolam 2.5 mg single oral dose alone (Day 1), median [min, max]), 0.500 [0.217; 2.00] h. Also, the “AUC0–144 h” value is 12.1 (87.0) h*ng/mL in the data set on CYP3A [1] (setting [3]) and 14.7 (74.4) h*ng/mL in the data set with CYP3A [1] (setting [4]). The figures for the Cmax in the data set with CYP3A [1] (setting [3]) and with CYP3A [1] (setting [4]) were 1.90 (73.8) ng/mL and 5.41 (74.1) ng/mL, respectively. Besides, the Metabolite-to-parent ratio was 2.9% and 2.89 (66.7) % in the data set with CYP3A [1] (midazolam + ceritinib 750 mg QD (Day 28), geometric mean (CV%)); 19.3% and 19.3 (66.3) % with CYP3A [1] (midazolam alone (Day 1), geometric mean (CV%)). For the same compound, in the data set on CYP3A [1] (setting [5]), the “decrease in the metabolite-to-parent AUC ratio” value is on record as 85%.

As for `CC(=O)C[C@@H](c1ccccc1)c1c(O)c2ccc(O)cc2oc1=O` [7-Hydroxy-S-warfarin, 7-hydroxy-S-warfarin], the results for the “AUC0-inf, adjusted geometric mean” value in the data set on CYP2C9 (setting [6]) and in the data set with CYP2C9 (treatment warfarin alone) were 3330 ng·h/mL and 3090 ng·h/mL, respectively. The “Cmax, adjusted geometric mean” value with CYP2C9 (setting [6]) is 34.8 ng/mL; with CYP2C9 (treatment warfarin alone) it was 39.1 ng/mL. For the same compound, the results for the Tmax with CYP2C9 (warfarin 10 mg single oral dose + ceritinib 750 mg QD (Day 28)) and in the data set with CYP2C9 (setting [8]) were 47.2 [8.50; 73.7] h and 24.2 [2.97; 49.9] h, respectively. Moreover, the “AUC0–144 h” value with CYP2C9 (setting [7]) is 3320 (64.1) h*ng/mL; with CYP2C9 (setting [8]) it was 2910 (61.8) h*ng/mL. The results for the Cmax in the data set with CYP2C9 (setting [7]) and in the data set on CYP2C9 (setting [8]) were 34.9 (61.6) ng/mL and 39.7 (60.3) ng/mL, respectively. In addition, the Metabolite-to-parent ratio with CYP2C9 (warfarin + ceritinib 750 mg QD (Day 28)) was 11.7 (58.2) %; in the data set with CYP2C9 (warfarin + ceritinib 750 mg QD (Day 28), listed as 7-hydroxy-S-warfarin), 11.7%; with CYP2C9 (warfarin alone (Day 1)), 14.3 (66.6) %; in the data set on CYP2C9 (warfarin alone (Day 1), listed as 7-hydroxy-S-warfarin), 14.3%. Besides, the “AUC0-inf geometric mean ratio (90% CI)” value with CYP2C9 (setting [9]) is 1.08. Moreover, the “Cmax geometric mean ratio (90% CI)” value in the data set with CYP2C9 (setting [9]) was 0.890. For the same compound, the “decrease in the metabolite-to-parent AUC ratio” value in the data set with CYP2C9 (setting [10]) is 18%.

For `Cc1ncc2n1-c1ccc(Cl)cc1C(c1ccccc1F)=NC2` [Midazolam, midazolam], the “predicted increase of midazolam AUC” value in the data set with CYP3A [2] (ceritinib dosed to steady-state + single oral dose midazolam 5 mg) is on record as 6 fold; in the data set with CYP3A [2] (single dose ceritinib 750 mg + single oral dose midazolam 5 mg), 30%. Also, the Tmax was about 1 h with CYP3A [1] (human, plasma, oral) and 0.5 h with CYP3A [1] (human, plasma, po, 2.5 mg, read-out: Tmax). Further, the AUC(0-inf) in the data set on CYP3A [1] (human, plasma, oral, treatment midazolam + ceritinib 750 mg QD for 3 weeks, linear mixed effects model) was determined as 393 ng·h/mL; in the data set with CYP3A [1] (human, plasma, oral, treatment midazolam alone, linear mixed effects model) it was 72.5 ng·h/mL. For the same compound, the Cmax with CYP3A [1] (human, plasma, oral, treatment midazolam + ceritinib 750 mg QD for 3 weeks, linear mixed effects model, read-out: Cmax, adjusted geometric mean) came to 42 ng/mL; in the data set on CYP3A [1] (human, plasma, oral, treatment midazolam alone, linear mixed effects model, read-out: Cmax, adjusted geometric mean), 23 ng/mL; in the data set on CYP3A [1] (human, plasma, po, 2.5 mg, midazolam 2.5 mg single oral dose alone (Day 1), patient plasma, geometric mean (CV%), read-out: Cmax) it was 23 ng/mL; in the data set on CYP3A [1] (human, plasma, po, midazolam 2.5 mg single oral dose + ceritinib 750 mg QD at steady state (Day 28), patient plasma, geometric mean (CV%), read-out: Cmax), 42 ng/mL. Also, the half-life in the data set with CYP3A [1] (human, plasma, po, 2.5 mg, midazolam 2.5 mg single oral dose alone (Day 1), geometric mean (CV%)) is 6 h; with CYP3A [1] (human, plasma, po, midazolam 2.5 mg single oral dose + ceritinib 750 mg QD (Day 28), geometric mean (CV%)), 15 h. For the same compound, the AUC(0-t) in the data set with CYP3A [1] (human, plasma, po, 2.5 mg, read-out: AUC0–144 h) stood at 70.2 ng·h/mL. Also, the figures for the apparent clearance (CL/F) with CYP3A [1] (setting [11]) and with CYP3A [1] (setting [12]) were 6.36 L/h and 34.5 L/h, respectively. Moreover, the T1/2 is given as 15.4 (37.4) h with CYP3A [1] (setting [11]) and 6.05 (47.8) h with CYP3A [1] (setting [12]). The “decrease in apparent clearance (CL/F) of midazolam” value in the data set with CYP3A [1] (setting [5]) is “approximately 80%”.

`CC(=O)C[C@H](c1ccccc1)c1c(O)c2ccccc2oc1=O` [R-warfarin]: in the data set with CYP2C9 (setting [6]), the “AUC0-inf, adjusted geometric mean” value is 38900 ng·h/mL and the “Cmax, adjusted geometric mean” value was determined as 616 ng/mL. Besides, in the data set on CYP2C9 (treatment warfarin alone), the “AUC0-inf, adjusted geometric mean” value came out at 36300 ng·h/mL and the “Cmax, adjusted geometric mean” value was 560 ng/mL. Also, in the data set with CYP2C9 (setting [7]), the “AUC0–144 h” value is 38,500 (34.9) h*ng/mL and the Cmax is recorded as 616 (23.6) ng/mL. In the data set on CYP2C9 (setting [8]), the “AUC0–144 h” value was 30,600 (39.0) h*ng/mL and the Cmax is listed as 560 (34.2) ng/mL. The “impact of ceritinib on R-warfarin pharmacokinetics” value in the data set with CYP2C9 (setting [10]) is “did not affect the pharmacokinetics of R-warfarin to a clinically significant extent; also recorded: negligible”.

In the case of `CC(=O)C[C@@H](c1ccccc1)c1c(O)c2ccccc2oc1=O` [S-warfarin], in the data set with CYP2C9 (co-administered with ceritinib vs warfarin alone), the “reduction of S-warfarin CL/F” value is on record as “approximately 30%”. Further, in the data set with CYP2C9 (setting [6]), the “AUC0-inf, adjusted geometric mean” value is 32800 ng·h/mL and the “Cmax, adjusted geometric mean” value is 598 ng/mL. Besides, in the data set on CYP2C9 (treatment warfarin alone), the “AUC0-inf, adjusted geometric mean” value was 21200 ng·h/mL and the “Cmax, adjusted geometric mean” value was 569 ng/mL. For the same compound, in the data set with CYP2C9 (setting [7]), the “AUC0–144 h” value was 28,400 (36.0) h*ng/mL and the Cmax is listed as 599 (27.5) ng/mL. In the data set on CYP2C9 (setting [8]), the “AUC0–144 h” value is listed as 18,200 (46.6) h*ng/mL and the Cmax is given as 569 (34.9) ng/mL.

(Values after article PMC7946667 (Cancer Chemotherapy and Pharmacology, 2021).)
